Read-outs that look alike come from different tables or passages of the source.
Legend:
HCT15 cells = experiment: HCT15 anti-proliferation / cell killing assay (CellTiter-Glo), with or without verapamil; format: cell-based, human; conditions: for IC50: Homo sapiens
Procedure: The cell line used in the anti-proliferation assays was HCT15, a human colon, colorectal carcinoma cell line. The HCT15 cells were grown in RPMI medium 1640+10% FBS. To run the assay, the cells (40 μL, 400 cells) were added to each well in a 384-well plate and incubated for twenty-four hours at 37° C. with 5% CO2. One hour before adding compounds, freshly dilute Verapamil to 0.2 mg/ml in ddH2O. Add 1 μL/well diluted Verapamil to Verapamil treatment wells and 1 μL/well ddH2O to the non-Verapamil treatment wells. Return plates to the incubator at 37° C. with 5% CO2. Then the cells were treated with test compounds at various concentrations using HPD300, and then normalize the DMSO to 0.5%. The control wells contained cells and the medium but lack the test compounds. The plates were incubated for 120 hours at 37° C. with 5% CO2. CTG reagent was then added to the wells (25 μL). After the plates were shaken for 10 min and then incubated for 10 min at room temperature, paste the clear bottom with white back seal and record luminescence with Envision. The inhibition % was calculated according to the following equation: inhibition %=[1−(assay-blank)/(control-blank)]×100.

SK-BR-3 cells = experiment: SK-BR-3 anti-proliferation assay for payloads (CellTiter-Glo); format: cell-based; conditions: Homo sapiens, free payload, 120-144 h, read-out: SKBR3
Procedure: The cell line used in the anti-proliferation assays was SK-BR-3, a human breast, adenocarcinoma (pleural effusion) cell line. The cells were grown in McCoy's 5a Medium+10% FBS. To run the assay for payloads, the cells (40 μL, 700 cells) were added to each well in a 384-well plate and incubated for 24 hours at 37° C. with 5% CO2. Then the cells were treated with test compounds at various concentrations using HPD300, and then normalize the DMSO to 0.5%. The control wells contain cells and the medium but lack the test compounds. The plates were incubated for 120 h at 37° C. with 5% CO2. To run the assay for ADCs and some key payloads, the cells (80 μL, 1000 cells) were added to each well in a 96-well plate and incubated for twenty-four hours at 37° C. with 5% CO2. Next, the ADCs or payloads were diluted with Opti-Mem with 0.1% BSA. The cells were treated with test compounds or ADCs (20 μL) at various concentrations in appropriate cell culture medium (total volume, 0.1 mL). The final concentration of DMSO was adjusted to 0.2% and the Opti-Mem with 0.1% BSA was adjusted to 5%. The control wells contained cells and the medium but lacked the test compounds. The plates were incubated for 144 h at 37° C. with 5% CO2. CTG reagent was then added to the wells (25 μL/384-well or 100 μL/96-well). After the plates were shaken for 10 min and then incubated for 10 min at room temperature, paste the clear bottom with white back seal and record luminescence with Envision. The inhibition % was calculated according to the following equation: inhibition %=[1-(assay-blank)/(control-blank)]×100.

[1] = Plasma stability test of payloads (LC-MS/MS, half-life); format: in vitro ADME; conditions: human plasma, 37° C., time points 0-24 h, read-out: Human plasma stability T1/2 (converted)
Procedure: Stock solutions were prepared at 10 mM in DMSO for the test compound. Aliquots of the stock solutions were diluted to 0.02 mM in 0.05 M sodium phosphate buffer containing 0.5% BSA as the dosing solution. Then 10 μL of the dosing solutions were dosed into 90 μL of pre-warmed plasma (37° C.) in singlet (n=1) in 96-well assay plates to reach a final test concentration of 2 μM. The plates were kept in a 37° C. water bath for the duration of the experiment. At each time point (0, 0.25, 1, 8, 24 h), 400 μL of acetonitrile (containing internal standard) was added into corresponding wells of the assay plates. After the final time point was quenched, the assay plates were shaken on a vibrator (IKA, MTS 2/4) for 10 min (600 rpm/min) and then centrifuged at 5594 g for 15 min (Thermo Multifuge×3R). Aliquots of the supernatant were taken and analyzed by LC-MS/MS. The peak area response ratio to internal standard (PARR) of the compounds at 0.25, 1, 8, and 24 h was compared to the PARR at time zero to determine the percent of test compound remaining at each time point. Half-lives (ti/2) were calculated using Excel software, fitting to a single-phase exponential decay equation.

[2] = HCT15 cells, no verapamil, 120 h (5 days), read-out: HCT-15
[3] = HCT-15, HCT15 cells pre-treated with verapamil, 120 h, read-out: HCT-15 with verapamil

Row | SMILES | HCT-15 with verapamil (nM) (HCT15 cells; HCT15 cells pre-treated with verapamil, 120 h) | IC50 (HCT15 cells; [2]) [nM] | IC50 (SK-BR-3 cells) [nM] | half-life at 2 μM [1] [h] | IC50 (HCT15 cells; [3]) [nM]
1 | CCCCCCN(C(=O)[C@@H](NC(=O)[C@H]1CCCCN1C)[C@@H](C)CC)[C@H](C[C@@H](OCCCO)c1nc(C(=O)N[C@@H](Cc2ccc(N)c(F)c2)CC(C)(C)C(=O)O)cs1)C(C)C (mixture of isomers) [PA22, Rac-(R)-5-(4-amino-3-fluorophenyl)-4-(2-((1S,3S)-3-((2R,3R)—N-hexyl-3-methyl-2-((S)-1-methylpiperidine-2-carboxamido)pentanamido)-1-(3-hydroxypropoxy)-4-methylpentyl)thiazole-4-carboxamido)-2,2-dimethylpentanoic acid] | Not reach | 0.532 | 0.044 | 63.5 | –
2 | CCCCCCN(C(=O)[C@@H](NC(=O)[C@H]1CCCCN1C)[C@@H](C)CC)[C@H](C[C@@H](OC(=O)NCCO)c1nc(C(=O)N[C@@H](Cc2ccc(N)c(F)c2)CC(C)(C)C(=O)O)cs1)C(C)C (mixture of isomers) [PA24, (S)-5-(4-amino-3-fluorophenyl)-4-(2-((3RS,6SR,8SR)-3-((RS)-sec-butyl)-5-hexyl-13-hydroxy-6-isopropyl-1-((R)-1-methylpiperidin-2-yl)-1,4,10-trioxo-9-oxa-2,5,11-triazatridecan-8-yl)thiazole-4-carboxamido)-2,2-dimethylpentanoic acid] | – | 0.944 | 0.135 | 43.4 | 0.255
3 | CCCCCCN(C(=O)[C@@H](NC(=O)[C@H]1CCCCN1C)[C@@H](C)CC)[C@H](C[C@@H](OC(C)=O)c1nc(C(=O)N[C@@H](Cc2ccc(NCCO)cc2)CC(C)(C)C(=O)O)cs1)C(C)C (racemic) [PA14, Rac-(R)-4-(2-((1S,3S)-1-acetoxy-3-((2R,3R)—N-hexyl-3-methyl-2-((S)-1-methylpiperidine-2-carboxamido)pentanamido)-4-methylpentyl)thiazole-4-carboxamido)-acid] | – | 0.618 | 0.158 | 71 | 0.147
4 | CCCCCCN(C(=O)[C@@H](NC(=O)[C@H]1CCCCN1C)[C@@H](C)CC)[C@H](C[C@@H](OCC)c1nc(C(=O)N[C@@H](Cc2ccc(NCCO)cc2)CC(C)(C)C(=O)O)cs1)C(C)C (racemic) [PA15, Rac-(R)-4-(2-((1S,3S)-1-ethoxy-3-((2R,3R)—N-hexyl-3-methyl-2-((S)-1-methylpiperidine-2-carboxamido)pentanamido)-4-methylpentyl)thiazole-4-carboxamido)-acid] | – | 1.7 | 0.314 | 103 | 0.393
5 | CCCCCCN(C(=O)[C@@H](NC(=O)[C@H]1CCCCN1C)[C@@H](C)CC)[C@H](C[C@@H](OC(C)=O)c1nc(C(=O)N[C@@H](Cc2ccc(NCC(=O)O)cc2)CC(C)(C)C(=O)O)cs1)C(C)C (racemic) [PA16, Rac-(R)-4-(2-((1S,3S)-1-acetoxy-3-((2R,3R)—N-hexyl-3-methyl-2-((S)-1-methylpiperidine-2-carboxamido)pentanamido)-4-methylpentyl)thiazole-4-carboxamido)-acid] | – | 0.062 | 0.019 | 327 | 0.033
6 | CCCCCCN(C(=O)[C@@H](NC(=O)[C@@]1(C)CCCN1)[C@@H](C)CC)[C@H](C[C@@H](OC(C)=O)c1nc(C(=O)N[C@@H](Cc2ccc(N)c(F)c2)CC(C)(C)C(=O)O)cs1)C(C)C [Compound P15, reference compound] | – | 1.66 | 0.068 | 15.1 | 0.19
7 | CCCCCCN(C(=O)[C@@H](NC(=O)[C@H]1CCCCN1CCO)[C@@H](C)CC)[C@H](C[C@@H](OC(C)=O)c1nc(C(=O)N[C@@H](Cc2ccc(N)cc2)CC(C)(C)C(=O)O)cs1)C(C)C [PA7, (4S)-4-({2-[(1R,3R)-1-(acetyloxy)-3-[(2S,3S)—N-hexyl-2-{[(2R)-1-(2-hydroxyethyl)piperidin-2-yl]formamido}-3-methylpentanamido]-4-methylpentyl]-1,3-thiazol-4-yl}formamido)-5-(4-aminophenyl)-2,2-dimethylpentanoic acid] | – | 0.122 | 0.038 | 65.9 | 0.037
8 | CCCCCCN(C(=O)[C@@H](NC(=O)[C@H]1CCCCN1CCO)[C@@H](C)CC)[C@H](C[C@@H](OCC)c1nc(C(=O)N[C@@H](Cc2ccc(N)cc2)CC(C)(C)C(=O)O)cs1)C(C)C [PA13, (S)-5-(4-aminophenyl)-4-(2-((1R,3R)-1-ethoxy-3-((2S,3S)—N-hexyl-2-((R)-1-(2-hydroxyethyl)piperidine-2-carboxamido)-3-methylpentanamido)-4-methylpentyl)thiazole-4-carboxamido)-2,2-dimethylpentanoic acid] | – | 1.31 | 0.288 | 313 | 0.284
9 | CCCCCCN(C(=O)[C@@H](NC(=O)[C@H]1CCCCN1C)[C@@H](C)CC)[C@H](C[C@@H](NC(C)=O)c1nc(C(=O)N[C@@H](Cc2ccc(NC(=O)CN)cc2)CC(C)(C)C(=O)O)cs1)C(C)C [PA21, (S)-4-(2-((1R,3R)-1-acetamido-3-((2S,3S)—N-hexyl-3-methyl-2-((R)-1-methylpiperidine-2-carboxamido)pentanamido)-4-methylpentyl)thiazole-4-carboxamido)-acid] | – | 13.8 | 0.703 | – | 1.73
10 | CCCCCCN(C(=O)[C@@H](NC(=O)[C@H]1CCCCN1C)[C@@H](C)CC)[C@H](C[C@@H](OC(=O)NCC(O)CO)c1nc(C(=O)N[C@@H](Cc2ccc(N)cc2)CC(C)(C)C(=O)O)cs1)C(C)C (stereo partly drawn) [PA26, (4S)-5-(4-aminophenyl)-4-(2-((3S,6R,8R)-3-((S)-sec-butyl)-5-hexyl-13,14-dihydroxy-6-isopropyl-1-((R)-1-methylpiperidin-2-yl)-1,4,10-trioxo-9-oxa-2,5,11-triazatetradecan-8-yl)thiazole-4-carboxamido)-2,2-dimethylpentanoic acid] | – | 14.6 | 2.82 | – | 2.23
11 | CCCCCCN(C(=O)[C@@H](NC(=O)[C@H]1CCCCN1C)[C@@H](C)CC)[C@H](C[C@@H](OC(=O)NCC(O)CO)c1nc(C(=O)N[C@@H](Cc2ccc(NCCO)cc2)CC(C)(C)C(=O)O)cs1)C(C)C (stereo partly shown) [PA27] | – | > 100 | 63.9 | – | 33.6
12 | CCCCCCN(C(=O)[C@@H](NC(=O)[C@H]1CCCCO1)[C@@H](C)CC)[C@H](C[C@@H](OCC)c1nc(C(=O)N[C@@H](Cc2ccc(N)cc2)CC(C)(C)C(=O)O)cs1)C(C)C [PA28] | – | 154 | > 100 | – | –
